Assay results published in patent US20220389061A1, “IMMUNOMODULATORS” (priority 2019, published 2022).
pIC50: −log10 of the molar value. Starred links: 1 amine or outer side, 2 acyl side, 3 side chain; linkers in the order of their positions; H or OH if unused. Positions of bridges follow the written chain, without caps; N, C: chain ends. Non-standard residues stand in square brackets, D forms with d. Residues, ends and D or L forms follow the SMILES beside them. Groups on a side chain read outwards from the residue. *: point of attachment. Trp(1-CH2CO2Me) = COC(=O)Cn1cc(C[C@H](N)C(=O)O)c2ccccc21; Trp(1-CH2COOH) = N[C@@H](Cc1cn(CC(=O)O)c2ccccc12)C(=O)O; Hyp = O=C(O)[C@@H]1C[C@@H](O)CN1; X34 = O=C(c1c2ccccc2cc2ccccc12)*; X19 = CCOC(=O)c1ccc(NC(=S)*)cc1; X3 = S=C(Nc1ccc(Oc2ccccc2)cc1)*; X44 = FC(F)(F)c1ccc(NC(=S)*)cc1; X72 = COc1ccc2nccc(C(=O)*)c2c1; NH(3-MeOPh) = COc1cccc(N*)c1; NMeNle = CCCC[C@H](NC)C(=O)O; X22 = c1ccc(N(c2ccccc2)*)cc1; X4 = S=C(Nc1ccc2c(c1)OCCO2)*; X9 = Fc1ccc(NC(=S)*)c(Cl)c1; X74 = Cc1cc(C)c(N*)c(C)c1; NMeA = CN[C@@H](C)C(=O)O; βNA = c1ccc2cc(N*)ccc2c1; Dab = NCC[C@H](N)C(=O)O; Dap = NC[C@H](N)C(=O)O; X17 = Cc1cc(C)cc(N*)c1; X51 = Cc1cccc(Cl)c1N*; CO = O=C([*:1])[*:2]

What follows are molecules tested against T1, PD-1/PD-L1 (Homo sapiens, UniProt Q9NZQ7) (assay: PD-1/PD-L1 Homogenous Time-Resolved Fluorescence (HTRF) binding assay). Settings: not given.
T1 construct: TVMV protease site linker (C); made in house; host or cells: HEK293T cells
T1 sequence (Q9NZQ7 18-239): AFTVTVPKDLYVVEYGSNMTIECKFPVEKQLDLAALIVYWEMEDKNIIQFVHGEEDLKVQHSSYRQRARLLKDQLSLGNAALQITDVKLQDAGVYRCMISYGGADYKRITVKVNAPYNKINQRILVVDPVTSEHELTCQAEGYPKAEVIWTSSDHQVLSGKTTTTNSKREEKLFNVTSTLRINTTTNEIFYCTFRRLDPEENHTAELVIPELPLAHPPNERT
How it was run: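 Compounds preincubated 15 min with PD-L1-His (10 nM final), then PD-1-Ig (20 nM final) added for 15 min in dPBS with 0.1% BSA, 0.05% Tween-20. Detection by Eu-cryptate anti-Ig (1 nM) and APC anti-His (20 nM) HTRF.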
Work on `CCCC[C@H]1C(=O)N(C)[C@@H](CCCC)C(=O)N[C@@H](CC(C)C)C(=O)N[C@H](C(=O)NCC(N)=O)CSCC(=O)N[C@@H](Cc2ccc(O)cc2)C(=O)N(C)[C@@H](C)C(=O)N[C@@H](CC(N)=O)C(=O)N2CCC[C@H]2C(=O)N[C@@H](CNC(=O)Nc2ccc3ccccc3c2)C(=O)N[C@@H](CC(C)C)C(=O)N2C[C@H](O)C[C@H]2C(=O)N[C@@H](Cc2c[nH]c3ccccc23)C(=O)N[C@@H](CCN)C(=O)N[C@@H](Cc2cn(CC(=O)O)c3ccccc23)C(=O)N1C` [Example 3043] ({CH2CO}-Y[NMeA]NP[Dap]([CO-βNA])L[Hyp]W[Dab][Trp(1-CH2COOH)][NMeNle][NMeNle]LCG-NH2; thioether N-14) yielded a pIC50 of 8.49.

Same assay, conditions: PD-L1-His 10 nM pre-incubated with inhibitor, PD-1-Ig 20 nM; read-out: HTRF IC50
`CCCC[C@H]1C(=O)N(C)[C@@H](CCCC)C(=O)N[C@@H](CC(C)C)C(=O)N[C@H](C(=O)NCC(N)=O)CSCC(=O)N[C@@H](Cc2ccc(O)cc2)C(=O)N(C)[C@@H](C)C(=O)N[C@@H](CC(N)=O)C(=O)N2CCC[C@H]2C(=O)N[C@@H](CNC(=S)Nc2ccc(F)cc2Cl)C(=O)N[C@@H](CC(C)C)C(=O)N2C[C@H](O)C[C@H]2C(=O)N[C@@H](Cc2c[nH]c3ccccc23)C(=O)N[C@@H](CCNC(=S)Nc2ccc(F)cc2Cl)C(=O)N[C@@H](Cc2cn(CC(=O)O)c3ccccc23)C(=O)N1C` [Example 1031] ({CH2CO}-Y[NMeA]NP[Dap](X9)L[Hyp]W[Dab](X9)[Trp(1-CH2COOH)][NMeNle][NMeNle]LCG-NH2; thioether N-14) showed a pIC50 of 8.55.
Molecule `CCCC[C@H]1C(=O)N(C)[C@@H](CCCC)C(=O)N[C@@H](CC(C)C)C(=O)N[C@H](C(=O)NCC(N)=O)CSCC(=O)N[C@@H](Cc2ccc(O)cc2)C(=O)N(C)[C@@H](C)C(=O)N[C@@H](CC(N)=O)C(=O)N2CCC[C@H]2C(=O)N[C@@H](CNC(=O)N(c2ccccc2)c2ccccc2)C(=O)N[C@@H](CC(C)C)C(=O)N2C[C@H](O)C[C@H]2C(=O)N[C@@H](Cc2c[nH]c3ccccc23)C(=O)N[C@@H](CCNC(=O)N(c2ccccc2)c2ccccc2)C(=O)N[C@@H](Cc2cn(CC(=O)OC)c3ccccc23)C(=O)N1C` [Example 1004] ({CH2CO}-Y[NMeA]NP[Dap]([CO-X22])L[Hyp]W[Dab]([CO-X22])[Trp(1-CH2CO2Me)][NMeNle][NMeNle]LCG-NH2; thioether N-14) has a pIC50 of 7.64.
`CCCC[C@H]1C(=O)N(C)[C@@H](CCCC)C(=O)N[C@@H](CC(C)C)C(=O)N[C@H](C(=O)NCC(N)=O)CSCC(=O)N[C@@H](Cc2ccc(O)cc2)C(=O)N(C)[C@@H](C)C(=O)N[C@@H](CC(N)=O)C(=O)N2CCC[C@H]2C(=O)N[C@@H](CNC(=S)Nc2ccc(C(=O)OCC)cc2)C(=O)N[C@@H](CC(C)C)C(=O)N2C[C@H](O)C[C@H]2C(=O)N[C@@H](Cc2c[nH]c3ccccc23)C(=O)N[C@@H](CCNC(=S)Nc2ccc(C(=O)OCC)cc2)C(=O)N[C@@H](Cc2cn(CC(=O)O)c3ccccc23)C(=O)N1C` [Example 1043] ({CH2CO}-Y[NMeA]NP[Dap](X19)L[Hyp]W[Dab](X19)[Trp(1-CH2COOH)][NMeNle][NMeNle]LCG-NH2; thioether N-14) was tested, and the pIC50 was 9.22.
`CCCC[C@H]1C(=O)N(C)[C@@H](CCCC)C(=O)N[C@@H](CC(C)C)C(=O)N[C@H](C(=O)NCC(N)=O)CSCC(=O)N[C@@H](Cc2ccc(O)cc2)C(=O)N(C)[C@@H](C)C(=O)N[C@@H](CC(N)=O)C(=O)N2CCC[C@H]2C(=O)N[C@@H](CNC(=O)Nc2cccc(OC)c2)C(=O)N[C@@H](CC(C)C)C(=O)N2C[C@H](O)C[C@H]2C(=O)N[C@@H](Cc2c[nH]c3ccccc23)C(=O)N[C@@H](CCNC(=O)Nc2cccc(OC)c2)C(=O)N[C@@H](Cc2cn(CC(=O)O)c3ccccc23)C(=O)N1C` [Example 1140] ({CH2CO}-Y[NMeA]NP[Dap]([CO-NH(3-MeOPh)])L[Hyp]W[Dab]([CO-NH(3-MeOPh)])[Trp(1-CH2COOH)][NMeNle][NMeNle]LCG-NH2; thioether N-14) showed a pIC50 of 8.22.
In the case of `CCCC[C@H]1C(=O)N(C)[C@@H](CCCC)C(=O)N[C@@H](CC(C)C)C(=O)N[C@H](C(=O)NCC(N)=O)CSCC(=O)N[C@@H](Cc2ccc(O)cc2)C(=O)N(C)[C@@H](C)C(=O)N[C@@H](CC(N)=O)C(=O)N2CCC[C@H]2C(=O)N[C@@H](CNC(=O)Nc2cc(C)cc(C)c2)C(=O)N[C@@H](CC(C)C)C(=O)N2C[C@H](O)C[C@H]2C(=O)N[C@@H](Cc2c[nH]c3ccccc23)C(=O)N[C@@H](CCNC(=O)Nc2cccc(OC)c2)C(=O)N[C@@H](Cc2cn(CC(=O)O)c3ccccc23)C(=O)N1C` [Example 1121] ({CH2CO}-Y[NMeA]NP[Dap]([CO-X17])L[Hyp]W[Dab]([CO-NH(3-MeOPh)])[Trp(1-CH2COOH)][NMeNle][NMeNle]LCG-NH2; thioether N-14), the pIC50 was 7.85.
`CCCC[C@H]1C(=O)N(C)[C@@H](CCCC)C(=O)N[C@@H](CC(C)C)C(=O)N[C@H](C(=O)NCC(N)=O)CSCC(=O)N[C@@H](Cc2ccc(O)cc2)C(=O)N(C)[C@@H](C)C(=O)N[C@@H](CC(N)=O)C(=O)N2CCC[C@H]2C(=O)N[C@@H](CNC(=O)Nc2c(C)cccc2Cl)C(=O)N[C@@H](CC(C)C)C(=O)N2C[C@H](O)C[C@H]2C(=O)N[C@@H](Cc2c[nH]c3ccccc23)C(=O)N[C@@H](CCNC(=O)Nc2c(C)cccc2Cl)C(=O)N[C@@H](Cc2cn(CC(=O)O)c3ccccc23)C(=O)N1C` [Example 1107] ({CH2CO}-Y[NMeA]NP[Dap]([CO-X51])L[Hyp]W[Dab]([CO-X51])[Trp(1-CH2COOH)][NMeNle][NMeNle]LCG-NH2; thioether N-14) was tested, and the pIC50 was 9.30.
For `CCCC[C@H]1C(=O)N(C)[C@@H](CCCC)C(=O)N[C@@H](CC(C)C)C(=O)N[C@H](C(=O)NCC(N)=O)CSCC(=O)N[C@@H](Cc2ccc(O)cc2)C(=O)N(C)[C@@H](C)C(=O)N[C@@H](CC(N)=O)C(=O)N2CCC[C@H]2C(=O)N[C@@H](CNC(=O)c2ccnc3ccc(OC)cc23)C(=O)N[C@@H](CC(C)C)C(=O)N2C[C@H](O)C[C@H]2C(=O)N[C@@H](Cc2c[nH]c3ccccc23)C(=O)N[C@@H](CCNC(=O)c2ccnc3ccc(OC)cc23)C(=O)N[C@@H](Cc2cn(CC(=O)OC)c3ccccc23)C(=O)N1C` [Example 3010] ({CH2CO}-Y[NMeA]NP[Dap](X72)L[Hyp]W[Dab](X72)[Trp(1-CH2CO2Me)][NMeNle][NMeNle]LCG-NH2; thioether N-14), the pIC50 was 8.11.
With `CCCC[C@H]1C(=O)N(C)[C@@H](CCCC)C(=O)N[C@@H](CC(C)C)C(=O)N[C@H](C(=O)NCC(N)=O)CSCC(=O)N[C@@H](Cc2ccc(O)cc2)C(=O)N(C)[C@@H](C)C(=O)N[C@@H](CC(N)=O)C(=O)N2CCC[C@H]2C(=O)N[C@@H](CNC(=S)Nc2ccc(C(F)(F)F)cc2)C(=O)N[C@@H](CC(C)C)C(=O)N2C[C@H](O)C[C@H]2C(=O)N[C@@H](Cc2c[nH]c3ccccc23)C(=O)N[C@@H](CCNC(=S)Nc2ccc(C(F)(F)F)cc2)C(=O)N[C@@H](Cc2cn(CC(=O)O)c3ccccc23)C(=O)N1C` [Example 1035] ({CH2CO}-Y[NMeA]NP[Dap](X44)L[Hyp]W[Dab](X44)[Trp(1-CH2COOH)][NMeNle][NMeNle]LCG-NH2; thioether N-14) the pIC50 was 8.68.
With `CCCC[C@H]1C(=O)N(C)[C@@H](CCCC)C(=O)N[C@@H](CC(C)C)C(=O)N[C@H](C(=O)NCC(N)=O)CSCC(=O)N[C@@H](Cc2ccc(O)cc2)C(=O)N(C)[C@@H](C)C(=O)N[C@@H](CC(N)=O)C(=O)N2CCC[C@H]2C(=O)N[C@@H](CNC(=S)Nc2ccc3c(c2)OCCO3)C(=O)N[C@@H](CC(C)C)C(=O)N2C[C@H](O)C[C@H]2C(=O)N[C@@H](Cc2c[nH]c3ccccc23)C(=O)N[C@@H](CCNC(=S)Nc2ccc3c(c2)OCCO3)C(=O)N[C@@H](Cc2cn(CC(=O)O)c3ccccc23)C(=O)N1C` [Example 3007] ({CH2CO}-Y[NMeA]NP[Dap](X4)L[Hyp]W[Dab](X4)[Trp(1-CH2COOH)][NMeNle][NMeNle]LCG-NH2; thioether N-14) the pIC50 was 8.59.
In the case of `CCCC[C@H]1C(=O)N(C)[C@@H](CCCC)C(=O)N[C@@H](CC(C)C)C(=O)N[C@H](C(=O)NCC(N)=O)CSCC(=O)N[C@@H](Cc2ccc(O)cc2)C(=O)N(C)[C@@H](C)C(=O)N[C@@H](CC(N)=O)C(=O)N2CCC[C@H]2C(=O)N[C@@H](CNC(=O)c2c3ccccc3cc3ccccc23)C(=O)N[C@@H](CC(C)C)C(=O)N2C[C@H](O)C[C@H]2C(=O)N[C@@H](Cc2c[nH]c3ccccc23)C(=O)N[C@@H](CCNC(=O)c2c3ccccc3cc3ccccc23)C(=O)N[C@@H](Cc2cn(CC(=O)OC)c3ccccc23)C(=O)N1C` [Example 2006] ({CH2CO}-Y[NMeA]NP[Dap](X34)L[Hyp]W[Dab](X34)[Trp(1-CH2CO2Me)][NMeNle][NMeNle]LCG-NH2; thioether N-14), the pIC50 was 5.80.
`CCCC[C@H]1C(=O)N(C)[C@@H](CCCC)C(=O)N[C@@H](CC(C)C)C(=O)N[C@H](C(=O)NCC(N)=O)CSCC(=O)N[C@@H](Cc2ccc(O)cc2)C(=O)N(C)[C@@H](C)C(=O)N[C@@H](CC(N)=O)C(=O)N2CCC[C@H]2C(=O)N[C@@H](CNC(=S)Nc2ccc(Oc3ccccc3)cc2)C(=O)N[C@@H](CC(C)C)C(=O)N2C[C@H](O)C[C@H]2C(=O)N[C@@H](Cc2c[nH]c3ccccc23)C(=O)N[C@@H](CCN)C(=O)N[C@@H](Cc2cn(CC(=O)O)c3ccccc23)C(=O)N1C` [Example 1045] ({CH2CO}-Y[NMeA]NP[Dap](X3)L[Hyp]W[Dab][Trp(1-CH2COOH)][NMeNle][NMeNle]LCG-NH2; thioether N-14) gave a pIC50 of 8.48.
`CCCC[C@H]1C(=O)N(C)[C@@H](CCCC)C(=O)N[C@@H](CC(C)C)C(=O)N[C@H](C(=O)NCC(N)=O)CSCC(=O)N[C@@H](Cc2ccc(O)cc2)C(=O)N(C)[C@@H](C)C(=O)N[C@@H](CC(N)=O)C(=O)N2CCC[C@H]2C(=O)N[C@@H](CNC(=O)Nc2c(C)cc(C)cc2C)C(=O)N[C@@H](CC(C)C)C(=O)N2C[C@H](O)C[C@H]2C(=O)N[C@@H](Cc2c[nH]c3ccccc23)C(=O)N[C@@H](CCN)C(=O)N[C@@H](Cc2cn(CC(=O)O)c3ccccc23)C(=O)N1C` [Example 1066] ({CH2CO}-Y[NMeA]NP[Dap]([CO-X74])L[Hyp]W[Dab][Trp(1-CH2COOH)][NMeNle][NMeNle]LCG-NH2; thioether N-14) gave a pIC50 of 8.54.
